Measurements: patent US20160030438A1, “ANTI-TUMORAL COMPOSITION COMPRISING A PI3KBETA INHIBITOR AND A RAF INHIBITOR, TO OVERCOME CANCER CELLS RESISTANCE” (SANOFI, priority 2013, published 2016)

Experiments:
[1] = test system: human melanoma cell line A2058; assay: In vitro pro-apoptotic activity (PARP cleavage) in A2058 in a concentration-dependent manner, example 6; type: cell-based; conditions: A2058, example 6
Experimental: (§1) The characterization of the interaction between compound (I) and compound (II) was studied using western blotting method which allows investigating apoptosis by detecting the cleavage of the PARP protein.
(§2) The human melanoma A2058 cell line was purchased at ATCC (Ref number CRL-11147 Batch 5074651). The A2058 cells were cultured in DMEM High glucose medium supplemented with 10% FBS and 2 mM L-Glutamine.
(§3) Cell treatment, Western Blot experiment and calculation of apoptosis fold induction were performed according to the material and method described in example 2.

[2] = test system: human melanoma cell line WM-266-4; assay: In vitro pro-apoptotic activity (PARP cleavage western blot) in WM-266-4, example 2; type: cell-based; conditions: for PARP cleavage signal (AU-BG): single agent 10 000 nM, 24 hours, WM-266-4, example 2
Experimental: The characterization of the interaction between compound (I) and compound (II) was studied using western blotting method measuring the expression of cleaved PARP which allows to investigate apoptosis by detecting the cleavage of the PARP protein.
(§4) The human melanoma WM-266-4 cell line was purchased at ATCC (Ref number CRL-1676 Batch 3272826). The WM-266-4 cells were cultured in RPMI1640 medium supplemented with 10% FBS and 2 mM L-Glutamine.
They were diluted following a 10 fold step dilution in DMSO in order to obtain a 1 mM solution. Then each solution at 10 mM and 1 mM was diluted 50-fold in culture medium containing 10% serum before being added onto cells with a 20-fold dilution factor to reach final concentrations of 10,000 nM and 1,000 nM. The final DMSO concentration was 0.1% in controls and in all treated wells.
(§5) WM-266-4 cells were seeded into 6-well microplates at 1 000 000 cells per well, in complete culture medium and incubated at 37° C., 5% CO2, overnight.
(§6) At the end of cell treatment period, adherent cells as well as cells in the cell culture supernatant were lysed for the preparation of the proteins. Cells were lysed in a lysis buffer containing Hepes 50 mM, NaCl 150 mM, Glycerol 10%, Triton 1%, pH=7.5, adding extemporaneously a cocktail of protease and phosphatase inhibitors diluted 100 fold. Protein concentrations in each sample were determined using microBCA technique according to manufacturer's instructions. Western blotting was performed loading 20 μg of proteins in each gel well, and according to the operating procedure. […] After western blotting revelation according to the operating procedure instructions, luminescence was read using FujiFilm (Ray Test) apparatus.
(§7) This instrument measures the total signal of luminescence obtained on Fujifilm machine (AU) for each selected band. Then, it subtracts the background value (BG) proportional to the size of the selected band or Area. The background is calculated from a band taken on the specific background of the western blot, to obtain the specific signal or (AU−BG) for each band. The calculation of the fold induction is performed for each treatment with compound or combination of compounds using the following formula:
Fold Induction=((AU−BG)t/(AU−BG)st)*100

[3] = test system: human melanoma cell line A2058; assay: In vitro pro-apoptotic activity (PARP cleavage western blot) in A2058, example 4; type: cell-based
Experimental: as §1, §2, §3

[4] = test system: human melanoma cell line WM-266-4; assay: In vitro pro-apoptotic activity (PARP cleavage) in WM-266-4 in a concentration-dependent manner, example 5; type: cell-based; conditions: WM-266-4, example 5
Experimental: as §1, §4
They were diluted following two 10-fold step dilution in DMSO in order to obtain a 1 mM solution and a 0.1 mM solution Then each solution at 10 mM, 1 mM or 0.1 mM was diluted 50-fold in culture medium containing 10% serum before being added onto cells with a 20-fold dilution factor to reach final concentrations of 10,000 nM, 1,000 nM and 100 nM. The final DMSO concentration was 0.1% in controls and in all treated wells.
as §3

[5] = test system: ribosomal protein S6 phosphorylated on Ser240/244 (pS6) in WM-266-4 cells; assay: In vitro S6 phosphorylation inhibition (pS6 western blot) in WM-266-4, example 7; type: cell-based, human; conditions: for inhibition at 0.1 µM: Homo sapiens
Experimental: (§8) The inhibitory effect on ribosomal S6 protein phosphorylation by both compounds alone or in combination was characterized using western blotting method which allows investigating S6 phosphorylation by detecting the expression of ribosomal protein S6 phosphorylated on Ser240/244 position (pS6).
as §4, §5
as §6, with “instructions.” for “instructions. Western blotting was performed loading 20 μg of proteins in each gel well, and according to the operating procedure.”
as §7, with “percentage of inhibition” for “fold induction”
Inhibition %=1−(((AU−BG)t/(AU−BG)st))*100

[6] = test system: ribosomal protein S6 phosphorylated on Ser240/244 (pS6) in A2058 cells; assay: In vitro S6 phosphorylation inhibition (pS6 western blot) in A2058, example 8; type: cell-based, human; conditions: for inhibition at 0.1 µM: Homo sapiens
Experimental: as §8, §2
Cell treatment, Western Blot experiment and calculation of percentage of pS6 inhibition were performed according to the material and method described in example 7.

[7] = single agent 10 000 nM, A2058, example 4
[8] = single agent 10 000 nM, 24 hours
[9] = Homo sapiens, single agent 100 nM

SMILES	PARP cleavage signal (AU-BG) ([1]; single agent 100 nM)	PARP cleavage signal (AU-BG) ([1]; single agent 1 000 nM)	PARP cleavage signal (AU-BG) ([1]; single agent 10 000 nM)	PARP cleavage signal (AU-BG) [2] [AU-BG]	PARP cleavage signal (AU-BG) [3, 7] [AU-BG]	PARP cleavage signal (AU-BG) ([4]; single agent 100 nM)	PARP cleavage signal (AU-BG) ([4]; single agent 1 000 nM)	PARP cleavage signal (AU-BG) ([4]; single agent 10 000 nM)	inhibition at 0.1 µM ([5]; single agent 100 nM) [%]	pS6 signal (AU-BG) ([5]; single agent 100 nM)	Inhibition % of S6 phosphorylation ([5]; single agent 1 000 nM) [%]	pS6 signal (AU-BG) ([5]; single agent 1 000 nM)	Inhibition % of S6 phosphorylation [5, 8] [%]	pS6 signal (AU-BG) [5, 8] [AU-BG]	inhibition at 0.1 µM ([6]; single agent 100 nM) [%]	pS6 signal (AU-BG) ([6]; single agent 100 nM)	Inhibition % of S6 phosphorylation ([6]; single agent 1 000 nM) [%]	pS6 signal (AU-BG) ([6]; single agent 1 000 nM)	Inhibition % of S6 phosphorylation ([6]; single agent 10 000 nM) [%]	pS6 signal (AU-BG) ([6]; single agent 10 000 nM)	other results
C[C@H]1Cc2ccccc2N1C(=O)Cc1nc(N2CCOCC2)cc(=O)[nH]1 [Compound (I), 2-{2-[(2S)-2-methyl-2,3-dihydro-1H-indol-1-yl]-2-oxoethyl}-6-(morpholin-4-yl)pyrimidin-4(3H)-one]	2380877	2685395	5173100	509366	2141626	241428	502317	1756263	69	12132104	90	3984365	94	2239754	8	27394341	42	17416427	73	8161752	
CCCS(=O)(=O)Nc1ccc(F)c(C(=O)c2c[nH]c3ncc(-c4ccc(Cl)cc4)cc23)c1F [Compound (II), 1-Propanesulfonamide,N-[3-[[5-(4-chlorophenyl)-1H-pyrrolo[2,3-b]pyridin-3-yl]carbonyl]-2,4-difluorophenyl]]	2431268	4540797	5192876	982219	2501364	413818	662217	876269	76	9230994	92	3163194	94	2333062	27	21830955	40	17943024	62	11383792	fold induction at 0.1 µM [1, 9]: 1.14; Fold induction of PARP cleavage ([1]; single agent 1 000 nM): 2.13 fold; Fold induction of PARP cleavage ([1]; single agent 10 000 nM): 2.44 fold; Fold induction of PARP cleavage ([2]; human, WM-266-4 melanoma cells (BRAF mutant, PTEN-deficient), 24 h, 10000 nM): 1.38 fold; Fold induction of PARP cleavage ([3]; human, 24 h, 10000 nM): 1.00 fold; Fold induction of PARP cleavage [3, 7]: 1.17 fold; fold induction at 0.1 µM [4, 9]: 1.62; Fold induction of PARP cleavage ([4]; single agent 1 000 nM): 2.59 fold; Fold induction of PARP cleavage ([4]; single agent 10 000 nM): 3.42 fold
